Laboratory results: US20020082261A1, “PROPHYLACTIC OR THERAPEUTIC AGENTS FOR DISEASES HAIVNG VASCULAR DYSFUNCTION ASSOCIATED WITH INSULIN RESISTANCE” (priority 1998, published 2002)
Where a name gives a salt, the structure may show the parent alone.

What was measured:
[1] = as reported in Japanese Patent Public Disclosure No. 25323/84; cited from earlier work
[2] = test system: superoxide anion (O2−) production level in thoracic aorta tissue sections; experiment: Superoxide anion (O2−) production level in thoracic aorta tissue sections, lucigenin-enhanced chemiluminescence, after 8 weeks oral dosing; assay type: in vivo, Male Sprague-Dawley rats; settings: endothelium-separated sections EC (−), comparison among the 4 groups (CTR, CTR+BH4, FR, FR+BH4)
Method: Male Sprague-Dawley rats (150 g, supplied from Charles River) were used to prepare a model group with insulin resistance induced by fructose feed loading (hereinafter referred to as “FR group”) according to the procedure described by Hwang et al. (Hwang, I-H. et al., Hypertension 10:512, 1987). A control group grown with a starch feed (hereinafter referred to as “CTR group”) was also prepared (FR group: n=16; CTR group: n=16). FR group received a feed containing 67% (hereinafter meaning % by weight) carbohydrate (containing 98% fructose available from Oriental Yeast Co., Ltd.), 13% fat and 20% protein, while CTR group received a feed containing 58% carbohydrate, 12% fat and […]. […] After 8 weeks, the thoracic aorta was collected. For each group, endothelium-separated sections (EC (−)) and non-separated sections (EC (+)) were prepared and examined for superoxide anion (O2^−) production level, endothelial NOS (eNOS) activity and endothelium-dependent vasorelaxation.
Group-to-group statistic analyses were made by one-way ANOVA, with the significance level being p<0.05. Multiple comparison was made by Bonferronl/Dunn, with the significance level being p<0.05.
Measurement of O2^−production level was made by the lucigenin-enhanced chemiluminescence method (Ohara et al., J. Clin. Invest. 91: 2546, 1993).

rats = experiment: Acute toxicity via oral route in rats; assay type: in vivo

In the case of `C[C@H](O)[C@H](O)C1CNc2nc(N)[nH]c(=O)c2N1` (stereo partly drawn) [(6R,S)-5,6,7,8-tetrahydrobiopterin], the toxicity [1] is given as “only slightly toxic”.

For `C[C@H](O)[C@H](O)[C@H]1CNc2nc(N)[nH]c(=O)c2N1` [BH4, (6R)-L-erythro-5,6,7,8-tetrahydrobiopterin], the “O2− production level in EC (−)” value [2] was “No significant difference”.

For `C[C@H](O)[C@H](O)[C@H]1CNc2nc(N)[nH]c(=O)c2N1` [BH4 dihydrochloride, (6R)-L-erythro-5,6,7,8-tetrahydrobiopterin], the acute toxicity (rats) was ≥ 2 g/kg (body weight).
